Values belong to the molecule of their own block, whether it stands above or below them. Activity calls are given as the source filed them. The rule behind the calls is not given here.
Key:
[1] = Cmax in rat; format: ADME, organism-based; settings: in vivo
Cynomolgus monkey [2] = assay: Ex vivo inhibition of platelet aggregation in cynomolgus monkey at 3 mg/kg after 6 hrs; format: functional; settings: Macaca fascicularis
[3] = AUC (0 to 4 hrs) in rat; format: ADME, organism-based; set-up: time < 4 hr; concentration or dose not given beside the values; settings: plasma
[4] = target: T1, Proteinase-activated receptor 1 (Homo sapiens) (UniProt P25116); assay: Displacement of [3H]haTRAP from human PAR1 receptor in platelet membrane at 1 uM; format: cell membranes
T1 sequence (whole entry): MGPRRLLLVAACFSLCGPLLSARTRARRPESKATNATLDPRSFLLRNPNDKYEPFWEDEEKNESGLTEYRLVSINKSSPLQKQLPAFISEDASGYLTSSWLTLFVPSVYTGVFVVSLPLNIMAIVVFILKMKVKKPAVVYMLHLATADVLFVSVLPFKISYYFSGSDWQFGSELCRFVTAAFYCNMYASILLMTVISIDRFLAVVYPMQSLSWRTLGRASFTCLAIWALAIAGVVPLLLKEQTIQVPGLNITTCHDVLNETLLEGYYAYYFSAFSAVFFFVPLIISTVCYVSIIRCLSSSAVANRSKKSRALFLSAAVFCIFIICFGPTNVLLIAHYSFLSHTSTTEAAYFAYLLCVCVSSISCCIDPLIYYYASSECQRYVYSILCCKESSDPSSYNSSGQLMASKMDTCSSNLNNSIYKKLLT

[5] = target: T1, Proteinase-activated receptor 1 (Homo sapiens); assay: (§1) Displacement of [3H]haTRAP from human PAR1 receptor in platelet membrane; format: cell membranes
[6] = target: T2, Proteinase-activated receptor 1 (Homo sapiens, UniProt P25116); assay: as §1; format: cell membranes
T2 sequence (P25116 whole entry): T1 sequence (whole entry)

Cannabinoid receptor 2 = Cannabinoid receptor 2 (Homo sapiens, UniProt P34972); assay: Binding affinity to cannabinoid CB2 receptor
Chain of Cannabinoid receptor 2 (P34972 whole entry): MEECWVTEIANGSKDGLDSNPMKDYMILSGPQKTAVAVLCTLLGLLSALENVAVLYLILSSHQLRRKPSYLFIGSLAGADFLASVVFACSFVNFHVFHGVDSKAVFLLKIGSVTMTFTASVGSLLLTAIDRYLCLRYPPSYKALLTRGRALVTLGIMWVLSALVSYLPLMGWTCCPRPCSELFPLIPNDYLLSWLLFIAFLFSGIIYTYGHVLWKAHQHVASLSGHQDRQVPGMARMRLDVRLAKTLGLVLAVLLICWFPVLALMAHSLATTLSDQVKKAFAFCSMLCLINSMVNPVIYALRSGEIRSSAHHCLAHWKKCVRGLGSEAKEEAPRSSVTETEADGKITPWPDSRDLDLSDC

Cynomolgus monkey [7] = assay: Ex vivo inhibition of platelet aggregation in cynomolgus monkey at 3 mg/kg up to 4 hrs; format: functional, organism-based; set-up: dose 3 mg/kg; settings: Macaca fascicularis

Compound: C[C@H]1OC(=O)[C@@H]2C=C3CCCC[C@H]3[C@H](/C=C/c3cccnc3)[C@H]12
inhibition [4]: 11%

Compound: Cc1cccc(/C=C/[C@@H]2[C@@H]3[C@@H](C)OC(=O)[C@@H]3C=C3CCCC[C@H]32)c1
Activity [5]: inactive

Compound: C[C@H]1OC(=O)[C@@H]2C=C3CCCC[C@H]3[C@H](/C=C/c3cnccn3)[C@H]12
inhibition [4]: 1%

Compound: C[C@H]1OC(=O)[C@@H]2C[C@@H]3CCCC[C@H]3[C@H](/C=C/c3ccc(-c4cncn4C)cn3)[C@H]12
IC50 [6]: 0.145 µM

Compound: CCc1nc(/C=C/[C@@H]2[C@@H]3[C@@H](C)OC(=O)[C@@H]3C=C3CCCC[C@H]32)ccc1-c1ccccc1
IC50 [6]: 0.285 µM

Compound: C[C@H]1OC(=O)[C@@H]2C[C@@H]3CCCC[C@H]3[C@H](/C=C/c3ccc(-c4cnccn4)cn3)[C@H]12
IC50 [6]: 0.088 µM

Compound: Cc1cccc(/C=C/[C@@H]2[C@@H]3[C@@H](C)OC(=O)[C@@H]3C=C3CCCC[C@H]32)n1
IC50 [6]: 0.35 µM

Compound: C[C@H]1OC(=O)[C@@H]2C=C3CCCC[C@H]3[C@H](/C=C/c3ccc(-c4ccccc4)cn3)[C@H]12
IC50 [6]: 0.043 µM

Compound: C[C@H]1OC(=O)[C@@H]2C[C@@H]3CCCC[C@H]3[C@H](/C=C/c3ccc(N4CCOCC4)cn3)[C@H]12
IC50 [6]: 0.44 µM

Compound: C[C@H]1OC(=O)[C@@H]2C=C3CCCC[C@H]3[C@H](/C=C/c3nccs3)[C@H]12
inhibition [4]: 14%

Compound: C[C@H]1OC(=O)[C@@H]2C[C@@H]3CCCC[C@H]3[C@H](/C=C/c3ccc(C4CCCC4)cn3)[C@H]12
IC50 [6]: 0.115 µM

Compound: C[C@H]1OC(=O)[C@@H]2C[C@@H]3CCCC[C@H]3[C@H](/C=C/c3ccc(N4CCN(c5ccccc5)CC4)cn3)[C@H]12
IC50 [6]: 3.3 µM

Compound: C[C@H]1OC(=O)[C@@H]2C=C3CCCC[C@H]3[C@H](/C=C/c3cnc4ccccc4c3)[C@H]12
inhibition [4]: 45%

Compound: C[C@H]1OC(=O)[C@@H]2C=C3CCCC[C@H]3[C@H](/C=C/c3nc4ccccc4o3)[C@H]12
inhibition [4]: 38%

Compound: Cc1nc(/C=C/[C@@H]2[C@@H]3[C@@H](C)OC(=O)[C@@H]3C=C3CCCC[C@H]32)ccc1-c1ccccc1
IC50 [6]: 0.13 µM

Compound: C[C@H]1OC(=O)[C@@H]2C=C3CCCC[C@H]3[C@H](/C=C/c3ccccc3)[C@H]12
inhibition [4]: 2%
Activity [5]: inactive

Compound: C[C@H]1OC(=O)[C@@H]2C[C@@H]3CCCC[C@H]3[C@H](/C=C/c3ccc(N4CCN(C)CC4)cn3)[C@H]12
inhibition [4]: 12%

Compound: C[C@H]1OC(=O)[C@@H]2C=C3CCCC[C@H]3[C@H](/C=C/c3cncnc3)[C@H]12
inhibition [4]: 5%

Compound: CCc1ccc(/C=C/[C@H]2[C@@H]3CCCC[C@H]3C[C@H]3C(=O)O[C@H](C)[C@@H]23)nc1
IC50 [6]: 0.263 µM

Compound: C[C@H]1OC(=O)[C@@H]2C[C@@H]3CCCC[C@H]3[C@H](/C=C/c3ccc(N4CCCC4)cn3)[C@H]12
Ki (Cannabinoid receptor 2): 0.487 µM
IC50 [6]: 0.029 µM

Compound: C[C@H]1OC(=O)[C@@H]2C=C3CCCC[C@H]3[C@H](/C=C/c3ccccn3)[C@H]12
inhibition [4]: 16%
IC50 [6]: 3.6 µM

Second part, led by results:

Cmax [1]: 1130 ng/mL
AUC(0-t) at 4 h [3]: 3010 ng·h/mL
Compound: C[C@H]1OC(=O)[C@@H]2C[C@@H]3CCCC[C@H]3[C@H](/C=C/c3ccc(-c4cccc(C(F)(F)F)c4)cn3)[C@H]12
Activity (Cynomolgus monkey [2]): Active

IC50 [6]: 0.207 µM
Compound: C[C@H]1OC(=O)[C@@H]2C[C@@H]3CCCC[C@H]3[C@H](/C=C/c3ccc(-c4ccc[n+]([O-])c4)cn3)[C@H]12

IC50 [6]: 0.012 µM
Compound: C[C@H]1OC(=O)[C@@H]2C[C@@H]3CCCC[C@H]3[C@H](/C=C/c3ccc(-c4ccco4)cn3)[C@H]12 (racemic)

Cmax [1]: 109 ng/mL
IC50 [6]: 0.016 µM
AUC(0-t) at 4 h [3]: 160 ng·h/mL
Compound: C[C@H]1OC(=O)[C@@H]2C[C@@H]3CCCC[C@H]3[C@H](/C=C/c3ccc(-c4cccs4)cn3)[C@H]12 (racemic)

Ki (Cannabinoid receptor 2): 13 µM
Cmax [1]: 1820 ng/mL
IC50 [6]: 0.022 µM
AUC(0-t) at 4 h [3]: 4230 ng·h/mL
Compound: C[C@H]1OC(=O)[C@@H]2C[C@@H]3CCCC[C@H]3[C@H](/C=C/c3ccc(-c4cccnc4)cn3)[C@H]12
Activity (Cynomolgus monkey [7]): Active
inhibition in vivo at 3 mg/kg (Cynomolgus monkey [2]): 70%

Cmax [1]: 343 ng/mL
IC50 [6]: 0.036 µM
AUC(0-t) at 4 h [3]: 1060 ng·h/mL
Compound: C[C@H]1OC(=O)[C@@H]2C[C@@H]3CCCC[C@H]3[C@H](/C=C/c3ccc(-c4ccc(Cl)s4)cn3)[C@H]12 (racemic)

IC50 [6]: 2.14 µM
Compound: C[C@H]1OC(=O)[C@@H]2C[C@@H]3CCCC[C@H]3[C@H](/C=C/c3ccc(-c4ccncc4)cn3)[C@H]12

IC50 [6]: 1.32 µM
Compound: C[C@H]1OC(=O)[C@@H]2C[C@@H]3CCCC[C@H]3[C@H](/C=C/c3ccc(-c4ncc[nH]4)cn3)[C@H]12

Cmax [1]: 461 ng/mL
IC50 [6]: 0.011 µM
AUC(0-t) at 4 h [3]: 434 ng·h/mL
Compound: C[C@H]1OC(=O)[C@@H]2C[C@@H]3CCCC[C@H]3[C@H](/C=C/c3ccc(-c4ccsc4)cn3)[C@H]12 (racemic)

IC50 [6]: 0.047 µM
Compound: C[C@H]1OC(=O)[C@@H]2C[C@@H]3CCCC[C@H]3[C@H](/C=C/c3ccc(-c4nccs4)cn3)[C@H]12

Cmax [1]: 223 ng/mL
AUC(0-t) at 4 h [3]: 451 ng·h/mL
Compound: C[C@H]1OC(=O)[C@@H]2C[C@@H]3CCCC[C@H]3[C@H](/C=C/c3ccc(-c4ccccc4)cn3)[C@H]12

Cmax [1]: 251 ng/mL
IC50 [6]: 0.022 µM
AUC(0-t) at 4 h [3]: 509 ng·h/mL
Compound: C[C@H]1OC(=O)[C@@H]2C[C@@H]3CCCC[C@H]3[C@H](/C=C/c3ccc(-c4ccccn4)cn3)[C@H]12

— ChEMBL document CHEMBL1149566, “Himbacine derived thrombin receptor (PAR-1) antagonists: SAR of the pyridine ring” (Bioorg Med Chem Lett, 2007)
